Measured values reported in patent US8901118B2, “Compounds and methods for kinase modulation, and indications therefor” (Plexxikon Inc., priority 2010, dated 2014).

How the values were obtained:
[1] = molecular target: CYP3A4(BFC) (Homo sapiens, UniProt P08684); experiment: CYP3A4(BFC) inhibition; format: in vitro ADME; conditions: CYP3A4, substrate BFC; read-out: Cyp IC50 3A4(BFC)
How it was run: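 Inhibition of human CYP3A4 with the BFC substrate was measured by fluorescence loss of the metabolized product. Compounds at 100 mM in DMSO were diluted 1 μL into 82 μL acetonitrile, then 11 μL into 204 μL cofactor mix with NADPH regeneration solutions, and serially diluted 1:1 to 10 points. Plates were incubated 30 min at 37° C and read at 409 ex/460 em to obtain IC50.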

[2] = molecular target: CYP2C9 (Homo sapiens, UniProt P11712); experiment: CYP2C9 inhibition (fluorescent substrate MFC); format: in vitro ADME; conditions: read-out: Cyp IC50 2C9
How it was run: (§1)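 Inhibition is measured as the drop in fluorescent metabolite formation across a 10-point compound titration with NADPH regeneration at 37 °C. Incubation lasts 15 min for CYP1A2, 45 min for CYP2C9 and 30 min for CYP2C19 and CYP2D6.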

[3] = molecular target: CYP2C19 (Homo sapiens, UniProt P33261); experiment: CYP2C19 inhibition (fluorescent substrate CEC); format: in vitro ADME; conditions: read-out: Cyp IC50 2C19
How it was run: as §1

[4] = molecular target: CYP2D6 (Homo sapiens, UniProt P10635); experiment: CYP2D6 inhibition (fluorescent substrate AMMC); format: in vitro ADME; conditions: read-out: Cyp IC50 2D6
How it was run: as §1

[5] = molecular target: TrkA kinase (Homo sapiens, UniProt P04629); experiment: TrkA kinase biochemical activity assay (AlphaScreen); conditions: 100 μM ATP; read-out: Biochemical Inhibition IC50 TrkA
How it was run: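 Recombinant TrkA with 30 nM biotin-(E4Y)10 and 100 μM ATP in 25 mM Hepes pH 7.5, 10 mM MnCl2, 5% DMSO, 40 min at room temperature. Phosphorylation read by AlphaScreen (streptavidin donor, PY20 acceptor beads); IC50 from signal vs compound concentration. TrkC run similarly.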

[6] = molecular target: CYP3A4(BQ) (Homo sapiens, UniProt P08684); experiment: CYP3A4(BQ) inhibition; format: in vitro ADME; conditions: CYP3A4, substrate BQ; read-out: Cyp IC50 3A4(BQ)
How it was run: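 Inhibition of human CYP3A4 (BQ substrate) was measured by fluorescence, since blocking metabolism of a known substrate lowers the fluorescent product signal. Compounds dissolved in DMSO at 100 mM were diluted into acetonitrile and then into NADPH regeneration cofactor mix, serially diluted 1:1 across 10 points, and preincubated in 384 well plates for 10 minutes at 37° C.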

[7] = Relative solubility by turbidity in aqueous buffers (pH 1.5, 4.5, 6.8, 7.4); format: physicochemical; conditions: for turbidity threshold (L, M, H) 1.4: pH 1.5 (SGF); for turbidity threshold (L, M, H) 4.5: pH 4.5 (SIF); for turbidity threshold (L, M, H) 6.8: pH 6.8 (SIF); for turbidity threshold (L, M, H) 7.4: pH 7.4 (HEPES)
How it was run: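 Twofold DMSO dilutions of a 25 mM stock were spiked into SGF (0.5M NaCl, pH 1.5), SIF (0.05M NaH2PO4, pH 4.5 and 6.8) or HEPES buffer (10 mM HEPES, 150 mM NaCl, pH 7.4). Absorbance was read at 490, 535 and 650 nm. The endpoint is the concentration crossing O.D. 0.01, averaged across wavelengths.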

CYP2C19, sequence (P33261 whole entry): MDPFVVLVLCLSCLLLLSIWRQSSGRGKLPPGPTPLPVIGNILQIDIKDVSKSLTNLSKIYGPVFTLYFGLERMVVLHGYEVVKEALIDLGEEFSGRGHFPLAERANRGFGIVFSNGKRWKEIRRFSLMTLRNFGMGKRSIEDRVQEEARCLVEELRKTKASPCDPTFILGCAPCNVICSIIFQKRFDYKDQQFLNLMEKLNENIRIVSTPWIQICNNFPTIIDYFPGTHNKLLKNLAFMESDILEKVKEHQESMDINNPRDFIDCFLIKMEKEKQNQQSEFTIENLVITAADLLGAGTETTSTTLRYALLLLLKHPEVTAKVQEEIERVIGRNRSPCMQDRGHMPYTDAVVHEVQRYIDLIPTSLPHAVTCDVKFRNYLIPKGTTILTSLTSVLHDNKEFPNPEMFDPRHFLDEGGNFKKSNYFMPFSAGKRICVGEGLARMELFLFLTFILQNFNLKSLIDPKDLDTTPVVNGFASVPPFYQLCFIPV
CYP3A4(BQ), sequence (P08684 whole entry): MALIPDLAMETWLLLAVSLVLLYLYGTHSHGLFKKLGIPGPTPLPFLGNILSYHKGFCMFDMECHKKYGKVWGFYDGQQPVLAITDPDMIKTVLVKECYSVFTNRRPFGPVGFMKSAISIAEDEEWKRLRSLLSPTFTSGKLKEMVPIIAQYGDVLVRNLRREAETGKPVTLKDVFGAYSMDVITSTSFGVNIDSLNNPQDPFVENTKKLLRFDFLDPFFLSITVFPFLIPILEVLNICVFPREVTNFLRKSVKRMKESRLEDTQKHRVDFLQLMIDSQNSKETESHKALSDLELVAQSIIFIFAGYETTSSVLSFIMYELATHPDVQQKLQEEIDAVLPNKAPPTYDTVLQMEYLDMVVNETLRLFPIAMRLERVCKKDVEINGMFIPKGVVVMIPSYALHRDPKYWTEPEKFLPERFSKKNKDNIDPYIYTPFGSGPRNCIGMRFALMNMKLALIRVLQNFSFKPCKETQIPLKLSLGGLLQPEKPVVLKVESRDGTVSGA
CYP3A4(BFC), sequence (P08684 whole entry): as above
TrkA kinase, sequence (P04629 33-796): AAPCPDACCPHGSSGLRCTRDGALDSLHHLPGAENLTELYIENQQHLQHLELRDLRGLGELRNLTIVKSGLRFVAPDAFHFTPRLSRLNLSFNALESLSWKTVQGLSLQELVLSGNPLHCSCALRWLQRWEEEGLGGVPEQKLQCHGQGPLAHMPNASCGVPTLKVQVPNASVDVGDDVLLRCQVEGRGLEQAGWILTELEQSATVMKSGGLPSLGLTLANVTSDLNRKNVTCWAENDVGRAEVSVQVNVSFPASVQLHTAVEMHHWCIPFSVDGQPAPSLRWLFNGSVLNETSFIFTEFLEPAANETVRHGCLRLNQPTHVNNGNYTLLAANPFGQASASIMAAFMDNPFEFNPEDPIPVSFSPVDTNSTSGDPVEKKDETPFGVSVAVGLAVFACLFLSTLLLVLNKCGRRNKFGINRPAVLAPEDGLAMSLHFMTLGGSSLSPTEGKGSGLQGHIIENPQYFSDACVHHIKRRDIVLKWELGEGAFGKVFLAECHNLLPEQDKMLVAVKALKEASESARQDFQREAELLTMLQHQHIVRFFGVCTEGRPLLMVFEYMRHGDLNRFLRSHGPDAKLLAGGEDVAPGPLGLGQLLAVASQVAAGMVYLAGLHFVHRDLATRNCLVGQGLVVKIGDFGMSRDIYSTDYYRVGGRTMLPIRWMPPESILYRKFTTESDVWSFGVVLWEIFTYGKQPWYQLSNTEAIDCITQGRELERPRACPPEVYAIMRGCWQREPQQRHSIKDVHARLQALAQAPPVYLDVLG
CYP2C9, sequence (P11712 whole entry): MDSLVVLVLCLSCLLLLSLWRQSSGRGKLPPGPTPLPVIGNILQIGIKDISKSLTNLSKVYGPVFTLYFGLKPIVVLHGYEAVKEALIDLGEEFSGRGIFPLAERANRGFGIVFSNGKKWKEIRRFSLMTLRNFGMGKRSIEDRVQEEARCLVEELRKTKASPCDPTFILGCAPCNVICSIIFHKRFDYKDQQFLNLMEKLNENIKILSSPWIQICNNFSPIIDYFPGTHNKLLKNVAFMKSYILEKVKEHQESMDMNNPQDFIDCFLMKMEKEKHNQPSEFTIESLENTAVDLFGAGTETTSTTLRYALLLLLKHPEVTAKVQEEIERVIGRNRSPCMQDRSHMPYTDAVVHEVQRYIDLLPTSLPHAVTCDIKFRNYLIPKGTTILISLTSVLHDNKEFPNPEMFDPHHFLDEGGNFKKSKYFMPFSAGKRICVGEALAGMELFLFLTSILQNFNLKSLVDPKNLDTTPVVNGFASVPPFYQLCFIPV
CYP2D6, sequence (P10635 whole entry): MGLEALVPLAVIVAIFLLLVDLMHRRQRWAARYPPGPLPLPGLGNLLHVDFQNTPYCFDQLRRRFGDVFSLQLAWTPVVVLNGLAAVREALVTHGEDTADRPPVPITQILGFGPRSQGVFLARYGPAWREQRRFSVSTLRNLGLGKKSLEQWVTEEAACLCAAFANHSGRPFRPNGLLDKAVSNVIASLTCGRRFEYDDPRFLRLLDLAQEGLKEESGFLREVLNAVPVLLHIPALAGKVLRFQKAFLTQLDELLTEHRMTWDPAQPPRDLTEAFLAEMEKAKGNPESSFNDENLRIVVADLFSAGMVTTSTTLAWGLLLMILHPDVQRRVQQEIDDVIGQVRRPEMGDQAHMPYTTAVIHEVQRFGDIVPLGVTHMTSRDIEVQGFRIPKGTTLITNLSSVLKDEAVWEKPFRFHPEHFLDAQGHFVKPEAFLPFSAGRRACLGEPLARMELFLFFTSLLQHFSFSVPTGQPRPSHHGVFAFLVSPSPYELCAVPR

| SMILES | IC50 [1] [µM] | IC50 [2] [µM] | IC50 [3] [µM] | IC50 [4] [µM] | IC50 [5] [µM] | IC50 [6] [µM] | turbidity threshold (L, M, H) 1.4 [7] | turbidity threshold (L, M, H) 4.5 [7] | turbidity threshold (L, M, H) 6.8 [7] | turbidity threshold (L, M, H) 7.4 [7] |
| --- | --- | --- | --- | --- | --- | --- | --- | --- | --- | --- |
| Cc1cnc2[nH]cc(Cc3ccc(NC4CCCCC4)nc3F)c2c1 [Compound P-3008, cyclohexyl-[6-fluoro-5-(5-methyl-1H-pyrrolo[2,3-b]pyridin-3-ylmethyl)-pyridin-2-yl]-amine] | 5 to 10 | 5 to 10 | < 5 | > 10 |  |  |  |  |  |  |
| O=C(c1ccc(Nc2ccc(C3CC3)nc2)nc1F)c1c[nH]c2ncnc(C3CC3)c12 [Compound P-4040, [6-(6-Cyclopropyl-pyridin-3-ylamino)-2-fluoro-pyridin-3-yl]-(4-cyclopropyl-7H-pyrrolo[2,3-d]pyrimidin-5-yl)-methanone] |  |  |  |  | < 0.01 |  |  |  |  |  |
| Fc1nc(Nc2ccc(C3CC3)nc2)ccc1Cc1c[nH]c2ncnc(C3CC3)c12 [Compound P-4041, (6-Cyclopropyl-pyridin-3-yl)-[5-(4-cyclopropyl-7H-pyrrolo[2,3-d]pyrimidin-5-ylmethyl)-6-fluoro-pyridin-2-yl]-amine] | > 10 | 5 to 10 | < 5 | > 10 | < 0.01 | 5 to 10 |  |  |  |  |
| Nc1ncnc2[nH]cc(C(=O)c3ccc(Nc4ccc(C5CC5)nc4)nc3F)c12 [Compound P-4048, (4-amino-7H-pyrrolo[2,3-d]pyrimidin-5-yl)-[6-[(6-cyclopropyl-3-pyridyl)amino]-2-fluoro-3-pyridyl]methanone] | > 10 | > 10 | > 10 | > 10 | < 0.01 | > 10 | H (high solubility if the threshold concentration is >250 μm) | M (moderate solubility if the threshold concentration is 31.3 μM to 250 μM) | M (moderate solubility if the threshold concentration is 31.3 μM to 250 μM) | M (moderate solubility if the threshold concentration is 31.3 μM to 250 μM) |
| CC(C)(O)CNc1ncnc2[nH]cc(C(=O)c3ccc(Nc4ccc(C5CC5)nc4)nc3F)c12 [Compound P-4049, [6-[(6-cyclopropyl-3-pyridyl)amino]-2-fluoro-3-pyridyl]-[4-[(2-hydroxy-2-methyl-propyl)amino]-7H-pyrrolo[2,3-d]pyrimidin-5-yl]methanone] | > 10 | 5 to 10 | 5 to 10 | > 10 | < 0.01 | > 10 | H (high solubility if the threshold concentration is >250 μm) | L (low solubility if the threshold concentration is <31.3 μM) | L (low solubility if the threshold concentration is <31.3 μM) | L (low solubility if the threshold concentration is <31.3 μM) |

The next lines start with results.

| IC50 [1] [µM] | IC50 [2] [µM] | IC50 [3] [µM] | IC50 [4] [µM] | IC50 [5] [µM] | IC50 [6] [µM] | SMILES | turbidity threshold (L, M, H) 1.4 [7] | turbidity threshold (L, M, H) 4.5 [7] | turbidity threshold (L, M, H) 6.8 [7] | turbidity threshold (L, M, H) 7.4 [7] |
| --- | --- | --- | --- | --- | --- | --- | --- | --- | --- | --- |
|  |  |  |  | < 1 |  | Nc1ncnc2[nH]cc(C(=O)c3ccc(NC4CCC(F)(F)CC4)nc3Cl)c12 [Compound P-4046, (4-amino-7H-pyrrolo[2,3-d]pyrimidin-5-yl)-[2-chloro-6-[(4,4-difluorocyclohexyl)amino]-3-pyridyl]methanone] |  |  |  |  |
| > 10 | > 10 | > 10 | > 10 | > 1 | > 10 | CC(C)=CNc1ncnc2[nH]cc(C(=O)c3ccc(NC4CCC(F)(F)CC4)nc3Cl)c12 [Compound P-4047, [2-chloro-6-[(4,4-difluorocyclohexyl)amino]-3-pyridyl]-[4-(2-methylprop-1-enylamino)-7H-pyrrolo[2,3-d]pyrimidin-5-yl]methanone] |  |  |  |  |
| > 10 | > 10 | > 10 | > 10 | < 1 | > 10 | CCNc1ncnc2[nH]cc(C(=O)c3ccc(NC4CCC(F)(F)CC4)nc3Cl)c12 [Compound P-4050, [2-chloro-6-[(4,4-difluorocyclohexyl)amino]-3-pyridyl]-[4-(ethylamino)-7H-pyrrolo[2,3-d]pyrimidin-5-yl]methanone] | H (high solubility if the threshold concentration is >250 μm) | L (low solubility if the threshold concentration is <31.3 μM) | L (low solubility if the threshold concentration is <31.3 μM) | L (low solubility if the threshold concentration is <31.3 μM) |
| > 10 | > 10 | > 10 | > 10 | < 0.01 | > 10 | CCNc1ncnc2[nH]cc(C(=O)c3cnc(NC4CCC(F)(F)CC4)c(F)c3)c12 [Compound P-4051, [6-[(4,4-difluorocyclohexyl)amino]-5-fluoro-3-pyridyl]-[4-(ethylamino)-7H-pyrrolo[2,3-d]pyrimidin-5-yl]methanone] | H (high solubility if the threshold concentration is >250 μm) | M (moderate solubility if the threshold concentration is 31.3 μM to 250 μM) | M (moderate solubility if the threshold concentration is 31.3 μM to 250 μM) | L (low solubility if the threshold concentration is <31.3 μM) |
| > 10 | > 10 | > 10 | > 10 | < 1 | > 10 | O=C(c1cnc(NC2CCC(F)(F)CC2)c(F)c1)c1c[nH]c2ncnc(NCC(F)(F)F)c12 [Compound P-4052, [6-[(4,4-difluorocyclohexyl)amino]-5-fluoro-3-pyridyl]-[4-(2,2,2-trifluoroethylamino)-7H-pyrrolo[2,3-d]pyrimidin-5-yl]methanone] | L (low solubility if the threshold concentration is <31.3 μM) | L (low solubility if the threshold concentration is <31.3 μM) | L (low solubility if the threshold concentration is <31.3 μM) | L (low solubility if the threshold concentration is <31.3 μM) |
| > 10 | > 10 | > 10 | > 10 | < 0.01 | > 10 | O=C(c1cnc(NC2CCC(F)(F)CC2)c(F)c1)c1c[nH]c2ncnc(NC3CC3)c12 [Compound P-4053, [4-(cyclopropylamino)-7H-pyrrolo[2,3-d]pyrimidin-5-yl]-[6-[(4,4-difluorocyclohexyl)amino]-5-fluoro-3-pyridyl]methanone] | H (high solubility if the threshold concentration is >250 μm) | M (moderate solubility if the threshold concentration is 31.3 μM to 250 μM) | M (moderate solubility if the threshold concentration is 31.3 μM to 250 μM) | M (moderate solubility if the threshold concentration is 31.3 μM to 250 μM) |
| > 10 | > 10 | > 10 | > 10 | < 0.1 | > 10 | CNc1ncnc2[nH]cc(C(=O)c3cnc(NC4CCC(F)(F)CC4)c(F)c3)c12 [Compound P-4054, [6-[(4,4-difluorocyclohexyl)amino]-5-fluoro-3-pyridyl]-[4-(methylamino)-7H-pyrrolo[2,3-d]pyrimidin-5-yl]methanone] | H (high solubility if the threshold concentration is >250 μm) | M (moderate solubility if the threshold concentration is 31.3 μM to 250 μM) | M (moderate solubility if the threshold concentration is 31.3 μM to 250 μM) | M (moderate solubility if the threshold concentration is 31.3 μM to 250 μM) |
